Experimental data: article PMC3839906, “Structural and Physiological Analyses of the Alkanesulphonate-Binding Protein (SsuA) of the Citrus Pathogen Xanthomonas citri” (PLoS ONE, 2013)

Key:
[1] = molecular target: T1, SsuA (alkanesulphonate-binding protein) (Xanthomonas citri, UniProt A0AAI7ZHA1); assay: thermal shift assay, SYPRO orange; conditions: 5 mM ligand, 6 µM SsuA, 20 mM Tris pH 7.4, 50 mM NaCl
T1 construct: mature periplasmic protein without the 42-residue signal peptide (972 bp amplicon), pET28a N-terminal His6 tag with thrombin site, tag cut with thrombin; expressed in E. coli BL21(DE3); one molecule per asymmetric unit
T1 sequence (A0AAI7ZHA1 entry or part of it): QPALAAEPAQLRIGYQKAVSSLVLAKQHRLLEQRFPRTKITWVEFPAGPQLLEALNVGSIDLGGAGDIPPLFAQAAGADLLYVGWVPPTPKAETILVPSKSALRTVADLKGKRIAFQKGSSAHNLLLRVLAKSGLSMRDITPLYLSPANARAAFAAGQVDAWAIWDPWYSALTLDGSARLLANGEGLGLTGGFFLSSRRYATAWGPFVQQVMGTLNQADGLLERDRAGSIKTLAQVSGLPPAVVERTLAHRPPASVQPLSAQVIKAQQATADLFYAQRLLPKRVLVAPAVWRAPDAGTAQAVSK

[2] = molecular target: T1, SsuA (alkanesulphonate-binding protein); assay: X-ray crystal structure of the complex; conditions: ligand-binding pocket

SMILES: O=S(=O)(O)CCN1CCOCC1 [MES, 2-(n-morpholino)-ethanesulphonic acid]
- Tm (unbound form 39.5 °C) [1]: 47.1 °C
- X-ray crystal structure of the complex ([2]; PDB code as in the deposition statement b39 (b17 prints 3KSX for MES)): PDB codes 3E4R (SsuA + HEPES), 3KSX (SsuA + MOPS) and 3KSJ (SsuA + MES)

SMILES: O=S(=O)(O)CCCN1CCOCC1 [MOPS, 3-morpholinopropane-1-sulphonic acid]
- Tm (unbound form 39.5 °C) [1]: 51 °C
- X-ray crystal structure of the complex ([2]; PDB code as in the deposition statement b39 (b17 prints 3KSJ for MOPS)): PDB codes 3E4R (SsuA + HEPES), 3KSX (SsuA + MOPS) and 3KSJ (SsuA + MES)

SMILES: O=S(=O)(O)CCN1CCN(CCO)CC1 [HEPES, 4-(2-hydroxyethyl)-1-piperazine ethane sulphonic acid]
- Tm (unbound form 39.5 °C) [1]: 45.8 °C
- X-ray crystal structure of the complex ([2]; 0.1 M HEPES pH 7.5, 1.6 M ammonium sulphate, 0.1 M NaCl): PDB codes 3E4R (SsuA + HEPES), 3KSX (SsuA + MOPS) and 3KSJ (SsuA + MES)

SMILES: O=S(=O)(O)CCNC1CCCCC1 [CHES, 2-(n-cyclohexylamino)-ethanesulphonic acid]
- Tm (unbound form 39.5 °C) [1]: 43.5 °C
